# Measured values as given in US6087355A, “Cephalosporin antibiotics” (Microcide Pharmaceuticals, Inc., priority 1996, dated 2000).
# Columns and labels:
# [1] = system: S. aureus Col(Meth^R)(lac^-); test: In vitro MIC, agar dilution; format: cell-based; conditions: Staphylococcus aureus, read-out: minimum inhibitory concentration (MIC)
# In short: (§1)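 Two-fold dilutions (128 to ≤0.25 μg/mL, in duplicate) were poured into Mueller-Hinton agar. Log-phase broth cultures were spot-inoculated at about 10^4 cfu per spot and incubated 35-36°C for 16-20 hours; the MIC was the lowest concentration inhibiting growth. Col is a high-level PBP2a producer; Col 8A is its isogenic PBP2a-lacking partner.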
# [2] = system: S. aureus Col8A(Meth^S)(lac^-); test: In vitro MIC, agar dilution; format: cell-based; conditions: Staphylococcus aureus; S. aureus Col8A(Meth^S)(lac^-); read-out: minimum inhibitory concentration (MIC)
# In short: as §1
# E. faecalis ATCC 29212 = test: In vitro MIC, agar dilution; format: cell-based; conditions: Enterococcus faecalis, ATCC29212, read-out: minimum inhibitory concentration (MIC)
# In short: (§2)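 Test agent, dissolved in PBS pH 7.2 with Tween 20 or DMSO if needed, was mixed into molten Mueller-Hinton agar over a two-fold series topping at 128 μg/mL. Log-phase isolates were then spot-inoculated at ~10^4 cfu and incubated at 35-36 °C for 16-20 hours.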
# E. coli ATCC 25992 = test: In vitro MIC, agar dilution; format: cell-based; conditions: Escherichia coli, ATCC25992, read-out: minimum inhibitory concentration (MIC)
# In short: as §2
# [3] = system: S. aureus 76(Meth^R)(lac^+); test: In vitro MIC, agar dilution; format: cell-based; conditions: Staphylococcus aureus, read-out: minimum inhibitory concentration (MIC)
# In short: as §2
# [4] = system: S. haemolyticus 05(Meth^R); test: In vitro MIC, agar dilution; format: cell-based; conditions: Staphylococcus haemolyticus, read-out: minimum inhibitory concentration (MIC)
# In short: as §2
# [5] = system: S. aureus ATCC 13709(Meth^S); test: In vitro MIC, agar dilution; format: cell-based; conditions: Staphylococcus aureus, ATCC13709, S. aureus ATCC 13709(Meth^S); read-out: minimum inhibitory concentration (MIC)
# In short: as §2
# E. faecium A491(Amp^R) = test: In vitro MIC, agar dilution; format: cell-based; conditions: Enterococcus faecium, read-out: minimum inhibitory concentration (MIC)
# In short: as §2
# MRSA strains = conditions: in words, reported in background; cited from earlier work
# [6] = system: S. aureus strain ATCC 13709 (methicillin-susceptible); test: Murine model for lethal bacteremic peritonitis; format: in vivo, female Swiss-Webster mice; conditions: Staphylococcus aureus, ATCC13709, SC, 72 h
# In short: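 Female Swiss-Webster mice were challenged IP with an LD100 inoculum in 7% hog gastric mucin, then given test drug subcutaneously in twofold increments (0.01–512 mg/kg) as two equal doses at challenge and 2 h later, 10 mice per group. Survival was scored at 72 h; PD50 (total mg/kg) was derived by probit.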
smiles,measurement,setting,value
"C[C@@H](O)[C@H]1C(=O)N2C(C(=O)O)=C(SCCN=CN)C[C@H]12 [Imipenem, imipenem, reference compound]",MIC,[1],32 µg/mL
same,MIC,[2],≤ 0.25 µg/mL
same,MIC,E. faecalis ATCC 29212,≤ 0.25 µg/mL
same,MIC,E. coli ATCC 25992,≤ 0.25 µg/mL
same,MIC,[3],32 µg/mL
same,MIC,[4],64 µg/mL
same,MIC,[5],≤ 0.25 µg/mL
same,MIC,E. faecium A491(Amp^R),> 128 µg/mL
same,activity against MRSA strains,MRSA strains,active against a few MRSA strains
same,responders at 0.039 mg/kg,"[6]; Dose 0.039 mg/kg, read-out: Survivors",30%
same,responders at 0.078 mg/kg,"[6]; Dose 0.078 mg/kg, read-out: Survivors",60%
same,responders at 0.156 mg/kg,"[6]; Dose 0.156 mg/kg, read-out: Survivors",100%
same,responders at 0.3125 mg/kg,"[6]; Dose 0.3125 mg/kg, read-out: Survivors",100%
same,responders at 0.625 mg/kg,"[6]; Dose 0.625 mg/kg, read-out: Survivors",100%
same,ED50,"[6]; two equal doses, IP challenge, read-out: ED50",0.06 mg/kg
